# Assay results published in patent US20140088044A1, “PRODUCT COMPRISING A NICOTINE-CONTAINING MATERIAL AND AN ANTI-CANCER AGENT” (priority 2012, published 2014).
# Assays:
# human cancer cells = test: Cytotoxicity to human cancer cells compared with metabolites; format: cell-based
# A549 xenografts = A549 xenografts in nude mice, PS V and curcumin alone and combined; format: in vivo, female nude mice; conditions: for inhibition of tumor growth (in words): duration of the study, to day 36; for average tumor volume: end of the study (day 36), PS V 200 mg/kg/d, curcumin 500 mg/kg/d, control 521±76 mm^3; for reduction in tumor weight: PS V p=0.06, PS V plus curcumin p<0.01
# Description: Polymeric nanoparticles of poly(c-caprolactone) (11000)-polyethylene glycol (5000) with entrapped curcumin were prepared according to the nanopercipitation-solvent displacement method. […] Then, the mice were inoculated subcutaneously on both flanks with […] cells (2×10^6 each). The treatment was resumed one day after tumor implantation and continued daily until the end of the study.
# [1] = Drug levels in lungs and plasma after inhalation vs. oral gavage; format: in vivo, mice
# [2] = Pharmacokinetic parameters in lung and plasma after inhalational administration (HPLC)
# Description: After 8 min of inhalation treatment, BALB/c nude mice were euthanized at various time points and drug levels were analyzed by HPLC in plasma and lung tissues.
# [3] = test system: pre-clinical models of lung cancer; conditions: cited from earlier work
# [4] = mouse, in vivo, inhaled or intranasal
# [5] = plasma, after 8 min of inhalation treatment
smiles,measurement,setting,value
"CCOP(=O)(OCC)OCCCCOC(=O)CC1=C(C)/C(=C/c2ccc([S+](C)[O-])cc2)c2ccc(F)cc21 (centres unmarked) [PS V, phospho-sulindac]","cytotoxicity relative to sulindac, sulindac sulfide XI and sulindac sulfone XII",human cancer cells,more cytotoxic
same,inhibition of tumor growth (in words),A549 xenografts,small inhibition of tumor growth
same,average tumor volume,A549 xenografts,419±36 mm^3
same,reduction in tumor volume,"A549 xenografts; end of the study, vs control",19.6%
same,reduction in tumor weight,A549 xenografts; vs control,27%
same,PS levels in plasma,[1]; after inhalation and oral administration,undetectable
same,"total drug levels (PS V plus its metabolites) in lungs, inhalation compared to oral",[1]; inhalation 6.5 mg/kg vs oral 150 mg/kg,significantly higher
"CSc1ccc(/C=C2/C(C)=C(CC(=O)O)c3cc(F)ccc32)cc1 [Sulindac sulfide XI, sulindac sulfide]",AUC,[2]; [4],18.9
"CC1=C(CC(=O)O)c2cc(F)ccc2/C1=C\c1ccc(S(C)(=O)=O)cc1 [Sulindac sulfone XII, sulindac sulfone]",AUC,[2]; [4],57.5
same,Cmax,[2]; [4],4.6 nmol/g
"CC1=C(CC(=O)O)c2cc(F)ccc2/C1=C\c1ccc([S+](C)[O-])cc1 (centres unmarked) [Sulindac, sulindac]",Tmax,"[2]; lung, after 8 min of inhalation treatment",0 h
same,AUC,[2]; [5],49.5
same,Tmax,[2]; [5],0 h
COc1cc(/C=C/C(=O)CC(=O)/C=C/c2ccc(O)c(OC)c2)ccc1O [curcumin],efficacy as a single agent,[3],< 30%
same,inhibition of tumor growth (in words),A549 xenografts,ineffective
same,average tumor volume,A549 xenografts,599±98 mm^3
same,reduction in tumor weight,A549 xenografts; vs control,not
